Measurements: ChEMBL document CHEMBL1157186, “Characterization of chemical components in extracts from Si-wu decoction with proliferation-promoting effects on rat mesenchymal stem cells” (Bioorg Med Chem, 2008)
The source made the active and inactive calls. No cut-off for these calls is given here.

System: Mesenchymal stem cell
Assay: Induction of proliferation of rat mesenchymal stem cells by MTT assay
Assay type: functional, cell-based

CC/C=C1\OC(=O)C2=C1C=CC(O)C2O (configuration not stated)
Activity: Active

CCC/C=C1\OC(=O)C2=C1CCC=C2
Activity: Active
